Values after ≈ are worked out from the molar mass of the structure shown.
Columns and labels:
Streptococcus pneumoniae = test: Antibacterial activity against Streptococcus pneumoniae KU197; format: functional
[1] = biological target: T1, Enoyl-(Acyl-carrier-protein) reductase (Streptococcus pneumoniae, UniProt Q9FBC5); test: Inhibition of Streptococcus pneumoniae KU197 FabK
T1 sequence (Q9FBC5 whole entry): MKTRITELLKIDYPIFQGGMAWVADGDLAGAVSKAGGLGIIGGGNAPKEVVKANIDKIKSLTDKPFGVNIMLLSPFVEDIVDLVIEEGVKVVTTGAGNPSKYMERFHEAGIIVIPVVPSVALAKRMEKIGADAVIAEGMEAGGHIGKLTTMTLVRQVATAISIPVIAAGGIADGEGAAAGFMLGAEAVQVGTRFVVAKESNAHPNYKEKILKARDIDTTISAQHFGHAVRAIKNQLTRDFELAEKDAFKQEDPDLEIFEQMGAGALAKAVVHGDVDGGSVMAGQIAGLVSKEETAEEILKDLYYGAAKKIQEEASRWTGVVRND

[2] = Inhibition of Escherichia coli FabI

Compound | MIC (Streptococcus pneumoniae) [µg/mL] | IC50 [1] [µM] | IC50 [2] [µM]
O=C(Nc1nc2ccccc2s1)OCc1nc2ccccc2[nH]1 | > 32 | > 32 | 
COc1cccc2sc(NC(=O)NCc3nc4ccccc4[nH]3)nc12 |  | > 32 | > 32
COc1ccc2sc(NC(=O)NCc3nc4ccccc4[nH]3)nc2c1 |  | > 32 | > 32
CS(=O)(=O)c1ccc2nc(NC(=O)NCc3nc4ccccc4[nH]3)sc2c1 | 4 (≈ 9.96 µM) | 0.76 | > 32
CS(=O)(=O)c1ccc2nc(NC(=O)NCc3nc(-c4ccccc4)c[nH]3)sc2c1 | 0.5 (≈ 1.17 µM) | 0.14 | > 32
O=C(NCc1nc2ccccc2[nH]1)Nc1nc2ccccc2s1 | 32 (≈ 99 µM) | 28 | > 32
Nc1nc2ccc(C(=O)O)cc2s1 |  | > 32 | 
COc1ccc2nc(NC(=O)NCc3nc4ccccc4[nH]3)sc2c1 | 16 (≈ 45.3 µM) | 7.6 | > 32

Now from value to molecule, other results behind:

MIC (Streptococcus pneumoniae) [µg/mL] | IC50 [1] [µM] | Compound | IC50 [2] [µM]
> 32 | 24 | CS(=O)(=O)c1ccc2nc(NC(=O)NCc3cccnc3)sc2c1 | 
> 32 | > 32 | O=C(CSc1nc2ccccc2[nH]1)Nc1nc2ccc(C(=O)O)cc2s1 | 
> 32 | > 32 | O=C(CSc1nc2ccccc2[nH]1)Nc1nc2ccccc2s1 | 
> 32 | 24 | CS(=O)(=O)c1ccc2nc(NC(=O)NCc3cccs3)sc2c1 | 
 | > 32 | O=C(O)CSc1nc2ccccc2[nH]1 | 

Source: ChEMBL document CHEMBL1140684, “Phenylimidazole derivatives as new inhibitors of bacterial enoyl-ACP reductase FabK” (Bioorg Med Chem Lett, 2007)
